Patent publication US20250296938A1, “Compounds that Interact with the Ras Superfamily for the Treatment of Cancers, Inflammatory Diseases, Rasopathies, and Fibrotic Disease” (SHY Therapeutics, LLC, priority 2018, published 2025)
Read-outs that look alike come from different tables or passages of the source.

Target: T1, KRas G12D mutant (Homo sapiens, UniProt P01116, G12D)
T1 construct: fused on or other part: His tag, used for capture on nickel-coated plates
Test: Ras GTP binding domain inhibition assay (Cy3-GTP/Cy5-GTP competition)
Settings: for IC50: cell-free, 100 nM Cy3-GTP or Cy5-GTP
Description: The following method was developed as specific assay for the following proteins: KRas wild type, KRas Q61H mutant, KRas G12C mutant, KRas G12D mutant, HRas wild type, Rac-1, and Rho-A.
• 25 mM Tris-HCl, pH 7.4 • 27 mM KCl • 137 mM NaCl • 1 mM MgCl2 • 1 mM DTT
• 50 mM Tris-HCl, pH 7.0 • 1 mM MgCl2 • 1 mM DTT
The small GTPases proteins: KRas wild type. KRas Q61H mutant, KRas G12C mutant, KRas G12D mutants, HRas wild type, Rac-1, and Rho-A were expressed as His-tagged proteins. In addition, the Guanosine nucleotide Exchange Factor (GEF) Sos protein (residues 556-1049) was expressed as a His-tagged protein. In cells, the guanine nucleotide exchange factor Sos protein promotes activation of Ras proteins by stimulating an exchange of GDP for GTP. The inclusion of Sos to the Ras GTP binding domain inhibition assay may be considered as an alternative representation of physiological cellular conditions for evaluating the inhibitory activity of some of the tested small molecules.
For the assay, all purified small GTPases proteins were diluted in Buffer-I or Buffer-II to a final concentration of 10-30 μg/mL. 200 μL of each diluted protein was added to a nickel-coated 96-well plate and incubated overnight at 4° C. Then the protein solution was discarded and 200 μL of Buffer-I or Buffer-II was added to each well in the presence of 1% DMSO. Compounds to be tested were added to the protein-coated wells at final concentration of 20 μM, and incubated for 3 hours at room temperature with and without […] of Sos added to the final hour of the incubation. When performing IC50 measurements a serial dilution of all tested concentrations was added. Then Cy3-GTP or Cy5-GTP was added to each well to a final concentration of 100 nM. The labeled GTP was incubated for 45 minutes at room temperature. Following GTP incubation, wells were washed 3× in Buffer-I or Buffer-II and 200 μL of Buffer-I or Buffer-II was added to each well. Following washes, the amount of bound labeled-GTP was measured using a SpectraMax M3 (Molecular Devices).

[1] = with SOS, read-out: KRas G12D mutant + SOS: % inh.
[2] = without SOS, read-out: KRas G12D mutant: % inh.

| inhibition at 20 µM [1] | inhibition at 20 µM [2] | IC50 | Compound |
| --- | --- | --- | --- |
| 51 to 75% | 51 to 75% |  | COc1cccc(-c2sc3nc(-c4nccn4C)nc(N[C@@H]4CC[C@H](OC)C4)c3c2C)c1F [drawing 1029] |
| 26 to 50% | 1 to 25% |  | COc1cccc(-c2sc3nc(-c4nc(C)cn4C)nc(N[C@@H]4CC[C@H](OC)C4)c3c2C)c1F [drawing 1031] |
| 26 to 50% | 26 to 50% |  | CO[C@H]1CC[C@@H](Nc2nc(-c3nc(C)cn3C)nc3sc(-c4cccc5[nH]ncc45)c(C)c23)C1 [drawing 1032] |
|  |  | 1 to 4.99 µM | CO[C@H]1CC[C@@H](Nc2nc(-c3nccn3C)nc3sc(-c4ccn(C(C)C)n4)c(C4=CC=CCC=C4)c23)C1 [drawing 1063] |
|  |  | 5 to 10 µM | Cc1c(-c2ccn(C)n2)sc2nc(-c3nccn3C)nc(NCCCS(C)(=O)=O)c12 [drawing 1064] |
|  |  | 5 to 10 µM | Cc1c(-c2ccn(C)n2)sc2nc(-c3nccn3C)nc(NCCCC(=O)N(C)C)c12 [drawing 1065] |
|  |  | 5 to 10 µM | Cc1c(-c2ccn(C)n2)sc2nc(-c3nccn3C)nc(NCCOC(=O)N(C)C)c12 [drawing 1066] |
|  |  | 5 to 10 µM | CO[C@H]1CC[C@@H](Nc2nc(-c3nccn3C)nc3sc(-c4ccn(C(C)C)n4)c(C)c23)C1 [drawing 1067] |
|  |  | 5 to 10 µM | CO[C@H]1C[C@@H](Nc2nc(-c3nccn3C)nc3sc(C(=O)NC(C)C)c(-c4ccccc4)c23)C1 [drawing 1068] |
|  |  | 5 to 10 µM | COCCNC(=O)c1sc2nc(-c3nccn3C)nc(N[C@H]3C[C@@H](OC)C3)c2c1-c1ccccc1 [drawing 1069] |
|  |  | 5 to 10 µM | CO[C@H]1C[C@@H](Nc2nc(-c3nccn3C)nc3sc(C(=O)N4CCOCC4)c(-c4ccccc4)c23)C1 [drawing 1070] |
|  |  | 5 to 10 µM | CO[C@H]1CC[C@@H](Nc2nc(-c3nccn3C)nc3sc(C(=O)NC(C)C)c(-c4ccccc4)c23)C1 [drawing 1072] |
|  |  | 5 to 10 µM | COCCNC(=O)c1sc2nc(-c3nccn3C)nc(N[C@@H]3CC[C@H](OC)C3)c2c1-c1ccccc1 [drawing 1073] |
|  |  | 5 to 10 µM | CO[C@H]1CC[C@@H](Nc2nc(-c3nccn3C)nc3sc(C(=O)N4CCCC4)c(-c4ccccc4)c23)C1 [drawing 1074] |
|  |  | 5 to 10 µM | CO[C@H]1CC[C@@H](Nc2nc(-c3nccn3C)nc3sc(C(=O)N4CCOCC4)c(-c4ccccc4)c23)C1 [drawing 1075] |
